According to the supplement of paper PMC8612539:
In brackets after ≈: the same amount, converted by molar mass.

System: Escherichia coli
Assay: minimum inhibitory concentration (MIC)
Procedure: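 Broth microdilution MIC (Sensititre BOPO7F bovine plate, CLSI methods) of 19 antimicrobials against field isolates of P. multocida, M. haemolytica, H. somni (deep nasopharyngeal swabs) and E. coli, Enterococcus spp. (rectal swabs) from weaned dairy heifers. Incubation 16-24 h at 35 C. MIC is the lowest concentration preventing visible growth. Values with <= or > lie at the tested range limits. Trimethoprim-sulfamethoxazole is given as the trimethoprim component of a 1:19 mixture.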

CN[C@@H]1[C@H](O)[C@H](NC)[C@H]2O[C@@]3(O)C(=O)C[C@@H](C)O[C@H]3O[C@@H]2[C@H]1O [Spectinomycin]
Conditions	minimum inhibitory concentration [µg/mL]
isolate (source animal id): 8	16 (≈ 48.1 µM)
isolate (source animal id): 9	> 64
isolate (source animal id): 10	64 (≈ 193 µM)
isolate (source animal id): 11	16 (≈ 48.1 µM)
isolate (source animal id): 12	32 (≈ 96.3 µM)
isolate (source animal id): 13	16 (≈ 48.1 µM)
isolate (source animal id): 14	> 64
isolate (source animal id): 15	16 (≈ 48.1 µM)
isolate (source animal id): 16	16 (≈ 48.1 µM)
isolate (source animal id): 98	16 (≈ 48.1 µM)
isolate (source animal id): 99	16 (≈ 48.1 µM)
isolate (source animal id): 100	≤ 8
isolate (source animal id): 101	> 64
isolate (source animal id): 102	16 (≈ 48.1 µM)
isolate (source animal id): 103	> 64
isolate (source animal id): 104	16 (≈ 48.1 µM)
isolate (source animal id): 105	16 (≈ 48.1 µM)
isolate (source animal id): 106	32 (≈ 96.3 µM)
isolate (source animal id): 107	16 (≈ 48.1 µM)
isolate (source animal id): 108	16 (≈ 48.1 µM)
isolate (source animal id): 109	16 (≈ 48.1 µM)
isolate (source animal id): 110	≤ 8
isolate (source animal id): 111	16 (≈ 48.1 µM)
isolate (source animal id): 112	16 (≈ 48.1 µM)
isolate (source animal id): 113	16 (≈ 48.1 µM)
isolate (source animal id): 114	16 (≈ 48.1 µM)
isolate (source animal id): 115	> 64
isolate (source animal id): 116	16 (≈ 48.1 µM)
isolate (source animal id): 117	> 64
isolate (source animal id): 118	16 (≈ 48.1 µM)
isolate (source animal id): 119	> 64
isolate (source animal id): 120	> 64
isolate (source animal id): 121	> 64
isolate (source animal id): 122	> 64
isolate (source animal id): 123	16 (≈ 48.1 µM)
isolate (source animal id): 124	> 64
isolate (source animal id): 125	> 64
isolate (source animal id): 126	> 64
isolate (source animal id): 127	> 64
isolate (source animal id): 128	> 64
isolate (source animal id): 129	16 (≈ 48.1 µM)
isolate (source animal id): 130	> 64
isolate (source animal id): 131	16 (≈ 48.1 µM)
isolate (source animal id): 132	16 (≈ 48.1 µM)
isolate (source animal id): 133	> 64
isolate (source animal id): 134	16 (≈ 48.1 µM)
isolate (source animal id): 135	16 (≈ 48.1 µM)
isolate (source animal id): 136	16 (≈ 48.1 µM)
isolate (source animal id): 137	16 (≈ 48.1 µM)
isolate (source animal id): 138	> 64
isolate (source animal id): 139	> 64
isolate (source animal id): 140	16 (≈ 48.1 µM)
isolate (source animal id): 141	> 64
isolate (source animal id): 142	16 (≈ 48.1 µM)
isolate (source animal id): 143	> 64
isolate (source animal id): 144	16 (≈ 48.1 µM)
isolate (source animal id): 145	> 64
isolate (source animal id): 146	16 (≈ 48.1 µM)
isolate (source animal id): 147	> 64
isolate (source animal id): 148	16 (≈ 48.1 µM)
isolate (source animal id): 149	16 (≈ 48.1 µM)
isolate (source animal id): 150	> 64
isolate (source animal id): 151	16 (≈ 48.1 µM)
isolate (source animal id): 152	16 (≈ 48.1 µM)
isolate (source animal id): 153	16 (≈ 48.1 µM)
isolate (source animal id): 154	16 (≈ 48.1 µM)
isolate (source animal id): 155	> 64
isolate (source animal id): 156	> 64
isolate (source animal id): 157	> 64
isolate (source animal id): 158	16 (≈ 48.1 µM)
isolate (source animal id): 159	≤ 8
isolate (source animal id): 160	> 64
isolate (source animal id): 161	> 64
isolate (source animal id): 162	16 (≈ 48.1 µM)
isolate (source animal id): 163	16 (≈ 48.1 µM)
isolate (source animal id): 164	16 (≈ 48.1 µM)
isolate (source animal id): 165	> 64
isolate (source animal id): 166	≤ 8
isolate (source animal id): 167	16 (≈ 48.1 µM)
isolate (source animal id): 168	16 (≈ 48.1 µM)
isolate (source animal id): 169	16 (≈ 48.1 µM)
isolate (source animal id): 170	16 (≈ 48.1 µM)
isolate (source animal id): 171	16 (≈ 48.1 µM)
isolate (source animal id): 172	16 (≈ 48.1 µM)
isolate (source animal id): 173	16 (≈ 48.1 µM)
isolate (source animal id): 174	16 (≈ 48.1 µM)
isolate (source animal id): 175	16 (≈ 48.1 µM)
isolate (source animal id): 176	16 (≈ 48.1 µM)
isolate (source animal id): 177	32 (≈ 96.3 µM)
isolate (source animal id): 178	16 (≈ 48.1 µM)
isolate (source animal id): 179	16 (≈ 48.1 µM)
isolate (source animal id): 180	16 (≈ 48.1 µM)
isolate (source animal id): 181	> 64
isolate (source animal id): 182	16 (≈ 48.1 µM)
isolate (source animal id): 183	16 (≈ 48.1 µM)
isolate (source animal id): 184	16 (≈ 48.1 µM)
isolate (source animal id): 185	16 (≈ 48.1 µM)
isolate (source animal id): 186	16 (≈ 48.1 µM)
isolate (source animal id): 187	32 (≈ 96.3 µM)
isolate (source animal id): 188	32 (≈ 96.3 µM)

CN(C)[C@@H]1C(O)=C(C(N)=O)C(=O)[C@@]2(O)C(O)=C3C(=O)c4c(O)cccc4[C@@](C)(O)[C@H]3C[C@@H]12 [Tetracycline]
Conditions	minimum inhibitory concentration [µg/mL]
isolate (source animal id): 8	> 8
isolate (source animal id): 9	> 8
isolate (source animal id): 10	> 8
isolate (source animal id): 11	1 (≈ 2.25 µM)
isolate (source animal id): 12	> 8
isolate (source animal id): 13	> 8
isolate (source animal id): 14	> 8
isolate (source animal id): 15	> 8
isolate (source animal id): 16	> 8
isolate (source animal id): 98	> 8
isolate (source animal id): 99	2 (≈ 4.5 µM)
isolate (source animal id): 100	> 8
isolate (source animal id): 101	> 8
isolate (source animal id): 102	> 8
isolate (source animal id): 103	> 8
isolate (source animal id): 104	> 8
isolate (source animal id): 105	> 8
isolate (source animal id): 106	> 8
isolate (source animal id): 107	> 8
isolate (source animal id): 108	> 8
isolate (source animal id): 109	> 8
isolate (source animal id): 110	> 8
isolate (source animal id): 111	> 8
isolate (source animal id): 112	> 8
isolate (source animal id): 113	> 8
isolate (source animal id): 114	> 8
isolate (source animal id): 115	> 8
isolate (source animal id): 116	> 8
isolate (source animal id): 117	> 8
isolate (source animal id): 118	> 8
isolate (source animal id): 119	> 8
isolate (source animal id): 120	> 8
isolate (source animal id): 121	> 8
isolate (source animal id): 122	> 8
isolate (source animal id): 123	> 8
isolate (source animal id): 124	> 8
isolate (source animal id): 125	> 8
isolate (source animal id): 126	> 8
isolate (source animal id): 127	> 8
isolate (source animal id): 128	> 8
isolate (source animal id): 129	> 8
isolate (source animal id): 130	> 8
isolate (source animal id): 131	> 8
isolate (source animal id): 132	> 8
isolate (source animal id): 133	> 8
isolate (source animal id): 134	> 8
isolate (source animal id): 135	2 (≈ 4.5 µM)
isolate (source animal id): 136	> 8
isolate (source animal id): 137	> 8
isolate (source animal id): 138	> 8
isolate (source animal id): 139	> 8
isolate (source animal id): 140	1 (≈ 2.25 µM)
isolate (source animal id): 141	> 8
isolate (source animal id): 142	> 8
isolate (source animal id): 143	> 8
isolate (source animal id): 144	> 8
isolate (source animal id): 145	> 8
isolate (source animal id): 146	> 8
isolate (source animal id): 147	> 8
isolate (source animal id): 148	> 8
isolate (source animal id): 149	> 8
isolate (source animal id): 150	> 8
isolate (source animal id): 151	> 8
isolate (source animal id): 152	> 8
isolate (source animal id): 153	> 8
isolate (source animal id): 154	> 8
isolate (source animal id): 155	> 8
isolate (source animal id): 156	> 8
isolate (source animal id): 157	> 8
isolate (source animal id): 158	> 8
isolate (source animal id): 159	> 8
isolate (source animal id): 160	> 8
isolate (source animal id): 161	> 8
isolate (source animal id): 162	> 8
isolate (source animal id): 163	> 8
isolate (source animal id): 164	> 8
isolate (source animal id): 165	> 8
isolate (source animal id): 166	> 8
isolate (source animal id): 167	> 8
isolate (source animal id): 168	1 (≈ 2.25 µM)
isolate (source animal id): 169	1 (≈ 2.25 µM)
isolate (source animal id): 170	> 8
isolate (source animal id): 171	1 (≈ 2.25 µM)
isolate (source animal id): 172	1 (≈ 2.25 µM)
isolate (source animal id): 173	> 8
isolate (source animal id): 174	> 8
isolate (source animal id): 175	> 8
isolate (source animal id): 176	> 8
isolate (source animal id): 177	> 8
isolate (source animal id): 178	> 8
isolate (source animal id): 179	1 (≈ 2.25 µM)
isolate (source animal id): 180	> 8
isolate (source animal id): 181	> 8
isolate (source animal id): 182	> 8
isolate (source animal id): 183	> 8
isolate (source animal id): 184	> 8
isolate (source animal id): 185	> 8
isolate (source animal id): 186	1 (≈ 2.25 µM)
isolate (source animal id): 187	> 8
isolate (source animal id): 188	> 8
